Results reported in patent US20090143426A1, “Synthesis of 1,3,6-trisubstituted-2-carboxyquinol-4-ones as selective ET A antagonists and their use as medicaments” (priority 2007, published 2009).
Positions of bridges follow the written chain, without caps; N, C: chain ends. Non-standard residues stand in square brackets, D forms with d. Residues, ends and D or L forms follow the SMILES beside them. No end group written: not given here.

What was measured:
[1] = test system: LPS-stimulated pregnant mice; conditions: Koscica et al. 2004, Wang et al. 2008; cited from earlier work
[2] = test system: LPS-induced influx of neutrophils into the lung; conditions: Bhavsar et al. 2008a, 2008b; cited from earlier work
[3] = test system: BALF neutrophils in female Syrian hamsters; test: Animal model of smoking related acute lung injury (ET-1 plus cigarette smoke, BALF neutrophils); type: in vivo, hamster
Description: Animal models of smoking related acute lung injury. The Animal Care and Utilization Committee of the College of Pharmacy and Allied Health Professions, St. John's University approved all experimental protocols, and the research was conducted according to the requirements of NIH Guide for the Care and Use of Laboratory Animals (revised 1996).
Female Syrian hamsters, weighing approximately 100 g each, were divided into two groups as follows: Group 1 was treated IP with: 1) 500 μg of HJP272 in 0.5 mL Na2CO3 and 2) 5 μg ET-1 in 0.25 mL PBS 60 minutes later, followed immediately by exposure to cigarette smoke for two hours. This regimen was continued for three days.
Group 2 was treated IP with: 1) 0.5 mL Na2CO3 and 2) […] ET-1 in 0.25 mL PBS 60 minutes later, followed immediately by exposure to cigarette smoke for three consecutive days as per Group 1. The animals were placed in a 70×48×38 cm chamber and passively exposed to cigarette smoke produced by a TE-10 smoking machine (Teague Enterprises, Davis, Calif.) that simultaneously burned two filtered research-grade cigarettes (type 2R4F, University of Kentucky). Smoke from both the filtered and burning ends of the cigarette was collected, and then mixed together with air in a separate chamber, thus simulating second-hand smoke exposure. Each cigarette was puffed once per minute for two seconds at a flow rate of 1.05 LPM, yielding 35 mL of smoke. This cycle was repeated nine times before ejecting the cigarette and loading a new one. Proper flow rate was maintained by a vacuum pump that established negative pressure at the exhaust port. Total smoke particulates averaged 87 mg per cubic meter.
All animals were sacrificed 24 hours after completing the smoke exposure regimen to maximize the neutrophil population in the lung, and the percentage of BALF neutrophils was measured (van der Vaart et al. 2004)

| Compound | melting point | further results |
| --- | --- | --- |
| CC(C)C[C@@H]1NC(=O)[C@@H](C(C)C)NC(=O)[C@@H]2CCCN2C(=O)[C@@H](CC(=O)O)NC(=O)[C@@H](Cc2c[nH]c3ccccc23)NC1=O [BQ-123] (cyclo(L[dW][dD]P[dV])) |  | incidence of premature delivery [1]: decreased incidence of premature delivery |
| CCCCOc1ccc2c(c1)c(=O)c(Cc1cccc(C(=O)OCC)c1)c(C(=O)OCC)n2Cc1cc2c(cc1CC)OCO2 [Product 1g, Ethyl 6-butoxy-3-(3-(ethoxycarbonyl)benzyl)-1-((6-ethylbenzo[d][1,3]dioxol-5-yl)methyl)-4-oxo-1,4-dihydroquinoline-2-carboxylate] | 147 to 150 °C |  |
| CCOC(=O)c1cccc(Cc2c(C(=O)OCC)n(Cc3cc4c(cc3CC)OCO4)c3ccc(OCC(C)C)cc3c2=O)c1 [Product 1h, Ethyl 3-(3-(ethoxycarbonyl)benzyl)-1-((6-ethylbenzo[d][1,3]dioxol-5-yl)methyl)-6-isobutoxy-4-oxo-1,4-dihydroquinoline-2-carboxylate] | 129 to 132 °C |  |
| CCOC(=O)c1cccc(Cc2c(C(=O)OCC)n(Cc3cc4c(cc3CC)OCO4)c3ccc(OC(C)CC)cc3c2=O)c1 (stereo not drawn) [Product 1i, Ethyl 6-sec-butoxy-3-(3-(ethoxycarbonyl)benzyl)-1-((6-ethylbenzo[d][1,3]dioxol-5-yl)methyl)-4-oxo-1,4-dihydroquinoline-2-carboxylate] | 129 to 132 °C |  |
| CCc1cc2c(cc1Cn1c(C(=O)O)c(Cc3cccc(C(=O)O)c3)c(=O)c3cc(OC(C)C)ccc31)OCO2 [Product 1q, 3-(3-carboxybenzyl)-1-((6-ethylbenzo[d][1,3]dioxol-5-yl)methyl)-6-isopropoxy-4-oxo-1,4-dihydroquinoline-2-carboxylic acid] | 199 to 200 °C |  |
| CCCCOc1ccc2c(c1)c(=O)c(Cc1cccc(C(=O)O)c1)c(C(=O)O)n2Cc1cc2c(cc1CC)OCO2 [Product 1t, 6-butoxy-3-(3-carboxybenzyl)-1-((6-ethylbenzo[d][1,3]dioxol-5-yl)methyl)-4-oxo-1,4-dihydroquinoline-2-carboxylic acid] | 161 to 162 °C |  |
| CCc1cc2c(cc1Cn1c(C(=O)O)c(Cc3cccc(C(=O)O)c3)c(=O)c3cc(OCC(C)C)ccc31)OCO2 [Product 1u, 3-(3-carboxybenzyl)-1-((6-ethylbenzo[d][1,3]dioxol-5-yl)methyl)-6-isobutoxy-4-oxo-1,4-dihydroquinolin-2-carboxylic] | 185 to 186 °C |  |
| CCc1cc2c(cc1Cn1c(C(=O)O)c(Cc3cccc(C(=O)O)c3)c(=O)c3cc(OCC4CC4)ccc31)OCO2 [Product 1w, 3-(3-carboxybenzyl)-6-(cyclopropylmethoxy)-1-((6-ethylbenzo[d][1,3]dioxol-5-yl)methyl)-4-oxo-1,4-dihydroquinoline-2-carboxylic acid] | 229 to 231 °C |  |
| CCCCCOc1ccc2c(c1)c(=O)c(Cc1cccc(C(=O)O)c1)c(C(=O)O)n2Cc1cc2c(cc1CC)OCO2 [Product 1x, 3-(3-carboxybenzyl)-1-((6-ethylbenzo[d][1,3]dioxol-5-yl)methyl)-4-oxo-6-(pentyloxy)-1,4-dihydroquinoline-2-carboxylic acid] | 152 to 155 °C |  |
| CCc1cc2c(cc1Cn1c(C(=O)O)c(Cc3cccc(C(=O)O)c3)c(=O)c3cc(OCCCO)ccc31)OCO2 [Product 1y, 3-(3-carboxybenzyl)-1-((6-ethylbenzo[d][1,3]dioxol-5-yl)methyl)-6-(3-hydroxypropoxy)-4-oxo-1,4-dihydroquinoline-2-carboxylic acid] | 192 to 194 °C |  |
| CC(C)C[C@H](NP(=O)(O)O[C@@H]1O[C@@H](C)[C@H](O)[C@@H](O)[C@H]1O)C(=O)N[C@@H](Cc1c[nH]c2ccccc12)C(=O)O [phosphoramidon] |  | incidence of premature delivery [1]: decreases the incidence of premature delivery; LPS-induced influx of neutrophils into the lung [2]: markedly reduces |
| Endothelin-1 (CSCSSLMDKECVYFCHLDIIW; disulfide 1-15, 3-11; ends not checked; UniProt P05305 53-73, looked up) [ET-1, reference compound] |  | percentage of BALF neutrophils ([3]; ET-1 and room air): 1%; percentage of BALF neutrophils ([3]; ET-1 prior to cigarette smoke, smoke-only control 18%): 46% |

The next lines start with results.

| melting point | Compound | further results |
| --- | --- | --- |
| 232 to 234 °C | CCOC(=O)c1cccc(Cc2c(C(=O)OCC)n(Cc3cc4c(cc3CC)OCO4)c3ccc(O)cc3c2=O)c1 [Product 1a, Ethyl 3-(3-(ethoxycarbonyl)benzyl)-1-((6-ethylbenzo[d][1,3]dioxol-5-yl)methyl)-6-hydroxy-4-oxo-1,4-dihydroquinoline-2-carboxylate] |  |
| 124 to 126 °C | CCOC(=O)c1cccc(Cc2c(C(=O)OCC)n(Cc3cc4c(cc3CC)OCO4)c3ccc(OCC)cc3c2=O)c1 [Product 1b, Ethyl 6-ethoxy-3-(3-(ethoxycarbonyl)benzyl)-1-((6-ethylbenzo[d][1,3]dioxol-5-yl)methyl)-4-oxo-1,4-dihydroquinoline-2-carboxylate] |  |
| 134 to 135 °C | CCCOc1ccc2c(c1)c(=O)c(Cc1cccc(C(=O)OCC)c1)c(C(=O)OCC)n2Cc1cc2c(cc1CC)OCO2 [Product 1c, Ethyl 3-(3-(ethoxycarbonyl)benzyl)-1-((6-ethylbenzo[d][1,3]dioxol-5-yl)methyl)-4-oxo-6-propoxy-1,4-dihydroquinoline-2-carboxylate] |  |
| 124 to 126 °C | CCOC(=O)c1cccc(Cc2c(C(=O)OCC)n(Cc3cc4c(cc3CC)OCO4)c3ccc(OC(C)C)cc3c2=O)c1 [Product 1d, Ethyl 3-(3-(ethoxycarbonyl)benzyl)-1-((6-ethylbenzo[d][1,3]dioxol-5-yl)methyl)-6-isopropoxy-4-oxo-1,4-dihydroquinoline-2-carboxylate] |  |
| 128 to 131 °C | C=CCOc1ccc2c(c1)c(=O)c(Cc1cccc(C(=O)OCC)c1)c(C(=O)OCC)n2Cc1cc2c(cc1CC)OCO2 [Product 1e, Ethyl 6-(allyloxy)-3-(3-(ethoxycarbonyl)benzyl)-1-((6-ethylbenzo[d][1,3]dioxol-5-yl)methyl)-4-oxo-1,4-dihydroquinoline-2-carboxylate] |  |
| 98 to 99 °C | CCCCCOc1ccc2c(c1)c(=O)c(Cc1cccc(C(=O)OCC)c1)c(C(=O)OCC)n2Cc1cc2c(cc1CC)OCO2 [Product 1k, Ethyl 3-(3-(ethoxycarbonyl)benzyl)-1-((6-ethylbenzo[d][1,3]dioxol-5-yl)methyl)-4-oxo-6-(pentyloxy)-1,4-dihydroquinoline-2-carboxylate] |  |
| 129 to 132 °C | CCOC(=O)c1cccc(Cc2c(C(=O)OCC)n(Cc3cc4c(cc3CC)OCO4)c3ccc(OCCCO)cc3c2=O)c1 [Product 1l, Ethyl 3-(3-(ethoxycarbonyl)benzyl)-1-((6-ethylbenzo[d][1,3]dioxol-5-yl)methyl)-6-(3-hydroxypropoxy)-4-oxo-1,4-dihydroquinoline-2-carboxylate] |  |
| 213 to 215 °C | CCOc1ccc2c(c1)c(=O)c(Cc1cccc(C(=O)O)c1)c(C(=O)O)n2Cc1cc2c(cc1CC)OCO2 [Product 1o, 3-(3-carboxybenzyl)-6-ethoxy-1-((6-ethylbenzo[d][1,3]dioxol-5-yl)methyl)-4-oxo-1,4-dihydroquinoline-2-carboxylic acid] |  |
| 162 to 163 °C | CCCOc1ccc2c(c1)c(=O)c(Cc1cccc(C(=O)O)c1)c(C(=O)O)n2Cc1cc2c(cc1CC)OCO2 [Product 1p, 3-(3-carboxybenzyl)-1-((6-ethylbenzo[d][1,3]dioxol-5-yl)methyl)-4-oxo-6-propoxy-1,4-dihydroquinoline-2-carboxylic acid] |  |
| 165 to 166 °C | C=CCOc1ccc2c(c1)c(=O)c(Cc1cccc(C(=O)O)c1)c(C(=O)O)n2Cc1cc2c(cc1CC)OCO2 [Product 1r, 6-(allyloxy)-3-(3-carboxybenzyl)-1-((6-ethylbenzo[d][1,3]dioxol-5-yl)methyl)-4-oxo-1,4-dihydroquinoline-2-carboxylic acid] |  |
